The record followed here is patent US9499550B2 (BRISTOL-MYERS SQUIBB COMPANY, priority 2012, dated 2016).

Assay [1] relates to HCV genotype 1a (H77 strain) replicon in HUH-7 cells. Put plainly: HCV replicon luciferase reporter assay, genotype 1a. It counts as cell-based. As to conditions: Hepatitis C virus, Huh-7, 72 h, HCV genotype 1a replicon luciferase, 3 days incubation, read-out: LE_1a (EC50, range). An outline of the steps: (§1)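 Replicon inhibition for both genotypes was measured as Renilla luciferase signal (EnduRen, 7.5 μM final, 2 h) after 3-day, 37° C exposure of replicon-bearing HUH-7 cells in 4% FCS DMEM, 0.5% DMSO. The 1b construct carries S1179I; the 1a H77 construct carries P1496L and S2204I. Twenty-point, 3-fold dilutions were fitted four-parametrically for EC50, and CC50 was taken from multiplexed Cell Titer-Blue.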

The subject of assay [2] is HCV genotype 1b (Con1) replicon in HUH-7 cells. Put plainly: HCV replicon luciferase reporter assay, genotype 1b. It counts as cell-based. As to conditions: Hepatitis C virus, Huh-7, 72 h, HCV genotype 1b replicon luciferase, 3 days incubation, read-out: LE_1b (EC50, range). An outline of the steps: as §1

As for `COc1ccc2c(O[C@@H]3C[C@H]4C(=O)N[C@]5(C(=O)NS(=O)(=O)C6CC6)C[C@H]5/C=C\CC[C@@H](C)C[C@@H](C)[C@H](NC(=O)OC(C)(C)C(F)(F)F)C(=O)N4C3)nc(-c3ccc(OC(C)C)nc3)cc2c1` [Compound 5215, 1,1,1-trifluoro-2-methylpropan-2-yl((2R,6S,7R,9R,13aS,14aR,16aS,Z)-14a-((cyclopropylsulfonyl)carbamoyl)-2-((3-(6-isopropoxypyridin-3-yl)-6-methoxyisoquinolin-1-yl)oxy)-7,9-dimethyl-5,16-dioxo-1,2,3,5,6,7,8,9,10,11,13a,14,14a,15,16,16a-hexadecahydrocyclopropa[e]pyrrolo[1,2-a][1,4]diazacyclopentadecin-6-yl)carbamate], the EC50 in assay [1] and in assay [2] was under 5.46 nM each time.

In the case of `[2H]C([2H])([2H])C(OC(=O)N[C@@H]1C(=O)N2C[C@H](Oc3nc(-c4ccc(OC(C)C)nc4)cc4cc(OC)ccc34)C[C@H]2C(=O)N[C@]2(C(=O)NS(=O)(=O)C3CC3)C[C@H]2/C=C\CC[C@H](C)C[C@H]1C)(C([2H])([2H])[2H])C(F)(F)F` [Compound 5216, 1,1,1,3,3,3-hexadeutero-2-(trifluoromethyl)propan-2-yl((2R,6S,7R,9S,13aS,14aR,16aS,Z)-14a-((cyclopropylsulfonyl)carbamoyl)-2-((3-(6-isopropoxypyridin-3-yl)-6-methoxyisoquinolin-1-yl)oxy)-7,9-dimethyl-5,16-dioxo-1,2,3,5,6,7,8,9,10,11,13a,14,14a,15,16,16a-hexadecahydrocyclopropa[e]pyrrolo[1,2-a][1,4]diazacyclopentadecin-6-yl)carbamate], the EC50 in assay [1] was 4.82 to 103 nM; in assay [2] it was under 5.46 nM.

In the case of `[2H]C([2H])([2H])C(OC(=O)N[C@@H]1C(=O)N2C[C@H](Oc3nc(-c4ccc(OC(C)C)nc4)cc4cc(OC)ccc34)C[C@H]2C(=O)N[C@]2(C(=O)NS(=O)(=O)C3CC3)C[C@H]2/C=C\CC[C@@H](C)C[C@H]1C)(C([2H])([2H])[2H])C(F)(F)F` [Compound 5217, 1,1,1,3,3,3-hexadeutero-2-(trifluoromethyl)propan-2-yl((2R,6S,7R,9R,13aS,14aR,16aS,Z)-14a-((cyclopropylsulfonyl)carbamoyl)-2-((3-(6-isopropoxypyridin-3-yl)-6-methoxyisoquinolin-1-yl)oxy)-7,9-dimethyl-5,16-dioxo-1,2,3,5,6,7,8,9,10,11,13a,14,14a,15,16,16a-hexadecahydrocyclopropa[e]pyrrolo[1,2-a][1,4]diazacyclopentadecin-6-yl)carbamate], the EC50 in assay [1] and in assay [2] was under 5.46 nM in each case.

On to `COc1ccc2c(O[C@@H]3C[C@H]4C(=O)N[C@]5(C(=O)NS(=O)(=O)C6CC6)C[C@H]5/C=C\CC[C@H](C)C[C@@H](C)[C@H](NC(=O)OC5C[C@@H]6C[C@@H]6C5)C(=O)N4C3)nc(-c3ccc(OC(C)C)nc3)cc2c1` (stereo partly drawn) [Compound 5218, (1R,3r,5S)-bicyclo[3.1.0]hexan-3-yl((2R,6S,7R,9S,13aS,14aR,16aS,Z)-14a-((cyclopropylsulfonyl)carbamoyl)-2-((3-(6-isopropoxypyridin-3-yl)-6-methoxyisoquinolin-1-yl)oxy)-7,9-dimethyl-5,16-dioxo-1,2,3,5,6,7,8,9,10,11,13a,14,14a,15,16,16a-hexadecahydrocyclopropa[e]pyrrolo[1,2-a][1,4]diazacyclopentadecin-6-yl)carbamate], for which the EC50 in assay [1] and in assay [2] was under 5.46 nM in each case.

For the compound `COc1ccc2c(O[C@@H]3C[C@H]4C(=O)N[C@]5(C(=O)NS(=O)(=O)C6CC6)C[C@H]5/C=C\CC[C@@H](C)C[C@@H](C)[C@H](NC(=O)OC5C[C@@H]6C[C@@H]6C5)C(=O)N4C3)nc(-c3ccc(OC(C)C)nc3)cc2c1` (stereo partly drawn) [Compound 5219, (1R,3r,5S)-bicyclo[3.1.0]hexan-3-yl((2R,6S,7R,9R,13aS,14aR,16aS,Z)-14a-((cyclopropylsulfonyl)carbamoyl)-2-((3-(6-isopropoxypyridin-3-yl)-6-methoxyisoquinolin-1-yl)oxy)-7,9-dimethyl-5,16-dioxo-1,2,3,5,6,7,8,9,10,11,13a,14,14a,15,16,16a-hexadecahydrocyclopropa[e]pyrrolo[1,2-a][1,4]diazacyclopentadecin-6-yl)carbamate], the EC50 in assay [1] and in assay [2] was under 5.46 nM throughout.

With `COc1ccc2c(O[C@@H]3C[C@H]4C(=O)N[C@]5(C(=O)NS(=O)(=O)C6CC6)C[C@H]5/C=C\CC[C@H](C)C[C@@H](C)[C@H](NC(=O)NC(C)(C)C)C(=O)N4C3)nc(-c3ccc(OC(C)C)nc3)cc2c1` [Compound 5220, (2R,6S,7R,9S,13aS,14aR,16aS,Z)-6-(3-(tert-butyl)ureido)-N-(cyclopropylsulfonyl)-2-((3-(6-isopropoxypyridin-3-yl)-6-methoxyisoquinolin-1-yl)oxy)-7,9-dimethyl-5,16-dioxo-1,2,3,5,6,7,8,9,10,11,13a,14,14a,15,16,16a-hexadecahydrocyclopropa[e]pyrrolo[1,2-a][1,4]diazacyclopentadecine-14a-carboxamide], the EC50 in assay [1] and in assay [2] was under 5.46 nM throughout.

As for `COc1ccc2c(O[C@@H]3C[C@H]4C(=O)N[C@]5(C(=O)NS(=O)(=O)C6CC6)C[C@H]5/C=C\CC[C@@H](C)C[C@@H](C)[C@H](NC(=O)NC(C)(C)C)C(=O)N4C3)nc(-c3ccc(OC(C)C)nc3)cc2c1` [Compound 5221, (2R,6S,7R,9R,13aS,14aR,16aS,Z)-6-(3-(tert-butyl)ureido)-N-(cyclopropylsulfonyl)-2-((3-(6-isopropoxypyridin-3-yl)-6-methoxyisoquinolin-1-yl)oxy)-7,9-dimethyl-5,16-dioxo-1,2,3,5,6,7,8,9,10,11,13a,14,14a,15,16,16a-hexadecahydrocyclopropa[e]pyrrolo[1,2-a][1,4]diazacyclopentadecine-14a-carboxamide], the EC50 in assay [1] and in assay [2] was under 5.46 nM throughout.

Consider `COc1ccc2c(O[C@@H]3C[C@H]4C(=O)N[C@]5(C(=O)NS(=O)(=O)C6(C)CC6)C[C@H]5/C=C\CC[C@H](C)C[C@@H](C)[C@H](NC(=O)OC(C)(C)C)C(=O)N4C3)nc(-c3ccc(OC(C)C)nc3)cc2c1` [Compound 5222, tert-butyl ((2R,6S,7R,9S,13aS,14aR,16aS,Z)-2-((3-(6-isopropoxypyridin-3-yl)-6-methoxyisoquinolin-1-yl)oxy)-7,9-dimethyl-14a-(((1-methylcyclopropyl)sulfonyl)carbamoyl)-5,16-dioxo-1,2,3,5,6,7,8,9,10,11,13a,14,14a,15,16,16a-hexadecahydrocyclopropa[e]pyrrolo[1,2-a][1,4]diazacyclopentadecin-6-yl)carbamate], for which the EC50 is 4.82 to 103 nM in assay [1] and under 5.46 nM in assay [2].

In the case of `COc1ccc2c(O[C@@H]3C[C@H]4C(=O)N[C@]5(C(=O)NS(=O)(=O)C6(C)CC6)C[C@H]5/C=C\CC[C@@H](C)C[C@@H](C)[C@H](NC(=O)OC(C)(C)C)C(=O)N4C3)nc(-c3ccc(OC(C)C)nc3)cc2c1` [Compound 5223, tert-butyl ((2R,6S,7R,9R,13aS,14aR,16aS,Z)-2-((3-(6-isopropoxypyridin-3-yl)-6-methoxyisoquinolin-1-yl)oxy)-7,9-dimethyl-14a-(((1-methylcyclopropyl)sulfonyl)carbamoyl)-5,16-dioxo-1,2,3,5,6,7,8,9,10,11,13a,14,14a,15,16,16a-hexadecahydrocyclopropa[e]pyrrolo[1,2-a][1,4]diazacyclopentadecin-6-yl)carbamate], the half-maximal effective concentration (EC50) in assay [1] and in assay [2] was under 5.46 nM throughout.

Regarding `COc1ccc2c(O[C@@H]3C[C@H]4C(=O)N[C@]5(C(=O)NS(=O)(=O)C6(C)CC6)C[C@H]5/C=C\CC[C@H](C)C[C@@H](C)[C@H](NC(=O)OC(C)(C)C(F)(F)F)C(=O)N4C3)nc(-c3ccc(OC(C)C)nc3)cc2c1` [Compound 5224, 1,1,1-trifluoro-2-methylpropan-2-yl((2R,6S,7R,9S,13aS,14aR,16aS,Z)-2-((3-(6-isopropoxypyridin-3-yl)-6-methoxyisoquinolin-1-yl)oxy)-7,9-dimethyl-14a-(((1-methylcyclopropyl)sulfonyl)carbamoyl)-5,16-dioxo-1,2,3,5,6,7,8,9,10,11,13a,14,14a,15,16,16a-hexadecahydrocyclopropa[e]pyrrolo[1,2-a][1,4]diazacyclopentadecin-6-yl)carbamate], the EC50 in assay [1] and in assay [2] was 4.82 to 103 nM each time.

Consider `COc1ccc2c(O[C@@H]3C[C@H]4C(=O)N[C@]5(C(=O)NS(=O)(=O)C6(C)CC6)C[C@H]5/C=C\CC[C@@H](C)C[C@@H](C)[C@H](NC(=O)OC(C)(C)C(F)(F)F)C(=O)N4C3)nc(-c3ccc(OC(C)C)nc3)cc2c1` [Compound 5225, 1,1,1-trifluoro-2-methylpropan-2-yl((2R,6S,7R,9R,13aS,14aR,16aS,Z)-2-((3-(6-isopropoxypyridin-3-yl)-6-methoxyisoquinolin-1-yl)oxy)-7,9-dimethyl-14a-(((1-methylcyclopropyl)sulfonyl)carbamoyl)-5,16-dioxo-1,2,3,5,6,7,8,9,10,11,13a,14,14a,15,16,16a-hexadecahydrocyclopropa[e]pyrrolo[1,2-a][1,4]diazacyclopentadecin-6-yl)carbamate], for which the EC50 in assay [1] and in assay [2] was under 5.46 nM throughout.

The EC50 is the concentration at which the effect is half-maximal.
